Values quoted from earlier work, collected in patent publication EP0656010B1, “Use of peptides causing a immune response for the preparation of medicaments to induce the suppression of the immune reaction” (priority 1992, dated 2001).

Tested on: sujets infectés par les VIH-1
Conditions: subjects infected with HIV-1

Row | Sequence | réponse immunitaire cellulaire dirigée contre le peptide
1 | GGEFFYCNSTQL | réponse immunitaire cellulaire
2 | SVEINCTRPNNNTRKSI | réponse immunitaire cellulaire
